Data on 21 compounds can be found in patent publication US8772500B2, “TRPV3 modulators” (AbbVie Inc., priority 2011, dated 2014).

The nature of data set [1]: In vitro human microsomal stability assay. Format: in vitro ADME. The note with it: human, 0.5 h, 0.5 μM, pH 7.4. The essentials:
(§1)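 Incubations ran at 37 °C in NADPH-supplemented rat (Sprague-Dawley) or human hepatic microsomes.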

In the next data set the target is T1, human TRPV3 (Homo sapiens, UniProt Q8NET8).
T1 construct: expressed in transfected cells
T1 sequence (Q8NET8 1-790): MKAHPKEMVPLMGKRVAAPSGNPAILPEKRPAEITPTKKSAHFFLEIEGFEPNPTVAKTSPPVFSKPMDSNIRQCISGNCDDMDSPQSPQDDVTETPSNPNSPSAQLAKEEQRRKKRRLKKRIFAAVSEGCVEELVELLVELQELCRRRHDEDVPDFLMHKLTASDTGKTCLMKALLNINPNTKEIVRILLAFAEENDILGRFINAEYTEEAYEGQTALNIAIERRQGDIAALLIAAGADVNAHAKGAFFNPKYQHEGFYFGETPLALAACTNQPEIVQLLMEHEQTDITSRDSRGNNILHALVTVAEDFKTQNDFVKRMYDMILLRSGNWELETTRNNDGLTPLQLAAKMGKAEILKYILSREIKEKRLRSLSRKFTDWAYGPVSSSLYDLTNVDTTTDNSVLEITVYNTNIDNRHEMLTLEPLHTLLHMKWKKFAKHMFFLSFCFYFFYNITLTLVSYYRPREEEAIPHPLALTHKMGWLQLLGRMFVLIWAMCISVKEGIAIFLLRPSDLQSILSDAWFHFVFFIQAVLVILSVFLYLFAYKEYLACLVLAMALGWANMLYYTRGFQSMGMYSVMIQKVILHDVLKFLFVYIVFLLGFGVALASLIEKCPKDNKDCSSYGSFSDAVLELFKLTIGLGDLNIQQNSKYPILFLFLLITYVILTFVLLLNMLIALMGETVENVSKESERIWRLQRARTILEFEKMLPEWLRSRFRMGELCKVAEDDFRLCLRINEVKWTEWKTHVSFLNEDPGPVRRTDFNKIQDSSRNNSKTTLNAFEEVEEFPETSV
Kind of data set: In vitro antagonism of recombinant human TRPV3 activation (FLIPR Tetra calcium assay, 2-APB as agonist). The note with it: HEK293 cells stably expressing human TRPV3; 2-APB 80 μM; range class; read-out: IC50 (reported range). Format: cell-based. The essentials:
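HEK293 cells stably expressing human TRPV3, loaded with Calcium-4 dye for 90-120 min; compound added 3 min before 2-APB at 80 μM (its EC80). Fluorescence (max minus min) over 10 min expressed as % of maximal 2-APB response without antagonist; IC50 mostly averaged from n≧2 runs.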

Data set [2] is described as follows: In vitro rat microsomal stability assay. Type of data set: in vitro ADME, rat (Sprague-Dawley). The note with it: Sprague-Dawley, rat, 0.5 h, 0.5 μM, pH 7.4. The essentials: as §1

In the case of `CC(C)(C)OC(=O)N1CCC(C2(C(O)c3ccccn3)CCC2)C1` (stereo not drawn) [Example 265, tert-butyl 3-{1-[hydroxy(pyridin-2-yl)methyl]cyclobutyl}pyrrolidine-1-carboxylate], in data set [1], the “HUMAN MICROSOMAL STABILITY (% REMAINING AFTER 30 MINUTES)” value is listed as 43%. Also, on human TRPV3, the IC50 lay within 5100 to 20000 nM. Moreover, in data set [2], the “RAT MICROSOMAL STABILITY (% REMAINING AFTER 30 MINUTES)” value stood at 0.059%.
The matching figures for `CN[C@@H]1CCC[C@H]1[C@@H](O)C1(c2ccc(Cl)c(Cl)c2)CCC1` [Example 228, (R)-[1-(3,4-dichlorophenyl)cyclobutyl][(1R,2R)-2-(methylamino)-cyclopentyl]methanol]: 70%, 1100 to 5000 nM and 25%.
In the same order, the values of `O[C@H](c1ccccn1)C1(c2ccc(OC(F)(F)F)cc2)CC(F)(F)C1` [Example 128, (S)-{3,3-difluoro-1-[4-(trifluoromethoxy)phenyl]cyclobutyl}(pyridin-2-yl)-methanol] are 59%, 50 to 500 nM and 67%.
The matching figures for `OC1CC(c2cc(C(F)(F)F)ccn2)(C(O)c2ccccn2)C1` (single isomer, unassigned) [Example 290]: above 85%, above 20000 nM and 71%.
Take `OC1CC(c2ccnc(C(F)(F)F)c2)(C(O)c2ccccn2)C1` [Example 305, cis-3-[(S)-hydroxy(pyridin-2-yl)methyl]-3-[2-(trifluoromethyl)pyridin-4-yl]-cyclobutanol]: in data set [1], the “HUMAN MICROSOMAL STABILITY (% REMAINING AFTER 30 MINUTES)” value is 63%. Also, at human TRPV3, the IC50 is 50 to 500 nM. Besides, the “RAT MICROSOMAL STABILITY (% REMAINING AFTER 30 MINUTES)” value in data set [2] is on record as 49%.
`OC(c1ccccn1)C1(c2ccc(F)c(F)c2)CCC1` (stereo not drawn) [Example 4, [1-(3,4-difluorophenyl)cyclobutyl](pyridin-2-yl)methanol]: the “HUMAN MICROSOMAL STABILITY (% REMAINING AFTER 30 MINUTES)” value in data set [1] amounted to 19%. Moreover, the IC50 at human TRPV3 was 50 to 500 nM. Besides, the “RAT MICROSOMAL STABILITY (% REMAINING AFTER 30 MINUTES)” value in data set [2] was found to be 4.2%.
In the same order, the values of `OC(c1ccccn1)C1(c2ccc(Cl)c(Cl)c2)CCOCC1` (stereo not drawn) [Example 59, [4-(3,4-dichlorophenyl)tetrahydro-2H-pyran-4-yl](pyridin-2-yl)methanol] are 45%, 1100 to 5000 nM and 12%.
The matching figures for `N[C@@H]1CCC[C@@H]1[C@@H](O)C1(c2ccc(Cl)c(Cl)c2)CCC1` [Example 216, (R)-[(1S,2R)-2-aminocyclopentyl][1-(3,4-dichlorophenyl)cyclobutyl]-methanol]: above 85%, 1100 to 5000 nM and 41%.
`OC(c1ccccn1)C1(c2cc(C(F)(F)F)cc(C(F)(F)F)c2)CCC1` (stereo not drawn) [Example 13, {1-[3,5-bis(trifluoromethyl)phenyl]cyclobutyl}(pyridin-2-yl)methanol]: the “HUMAN MICROSOMAL STABILITY (% REMAINING AFTER 30 MINUTES)” value in data set [1] is 7.4%. Further, the IC50 on human TRPV3 fell in the range of 501 to 1000 nM. Also, the “RAT MICROSOMAL STABILITY (% REMAINING AFTER 30 MINUTES)” value in data set [2] was 19%.
For `COC1(OC)CC(c2ccc(OC(F)(F)F)cc2)(C(O)c2ccccn2)C1` (stereo not drawn) [Example 129, {3,3-dimethoxy-1-[4-(trifluoromethoxy)phenyl]cyclobutyl}(pyridin-2-yl)-methanol], the “HUMAN MICROSOMAL STABILITY (% REMAINING AFTER 30 MINUTES)” value in data set [1] is 46%. Further, on human TRPV3, the IC50 was 50 to 500 nM. The “RAT MICROSOMAL STABILITY (% REMAINING AFTER 30 MINUTES)” value in data set [2] amounted to 0.01%.
The matching figures for `N[C@@H]1CCC[C@H]1[C@@H](O)C1(c2ccc(Cl)c(Cl)c2)CCC1` [Example 220, (R)-[(1R,2R)-2-aminocyclopentyl][1-(3,4-dichlorophenyl)cyclobutyl]-methanol]: above 85%, 501 to 1000 nM and 67%.
The matching figures for `Cc1cccc(C2(C(O)c3ccccn3)CCCO2)c1` (stereo not drawn) [Example 91, [2-(3-methylphenyl)tetrahydrofuran-2-yl](pyridin-2-yl)methanol]: 46%, 50 to 500 nM and 1.0%.
In the case of `OC(c1ccccn1)C1(c2ccccc2F)CCC1` (stereo not drawn) [Example 1, [1-(2-fluorophenyl)cyclobutyl](pyridin-2-yl)methanol], the “HUMAN MICROSOMAL STABILITY (% REMAINING AFTER 30 MINUTES)” value in data set [1] is 0.38%. Besides, the IC50 at human TRPV3 fell in the range of 1100 to 5000 nM. In data set [2], the “RAT MICROSOMAL STABILITY (% REMAINING AFTER 30 MINUTES)” value amounted to 0.48%.
For the compound `Cc1ccccc1CC1(C(O)c2ccccn2)CCC1` (stereo not drawn) [Example 253, [1-(2-methylbenzyl)cyclobutyl](pyridin-2-yl)methanol], in data set [1], the “HUMAN MICROSOMAL STABILITY (% REMAINING AFTER 30 MINUTES)” value is 0.21%. Also, the IC50 on human TRPV3 lay within 1100 to 5000 nM. For the same compound, the “RAT MICROSOMAL STABILITY (% REMAINING AFTER 30 MINUTES)” value in data set [2] amounted to 0.017%.
In the same order, the values of `C[C@]1(O)C[C@@](c2ccc(OC(F)(F)F)cc2)([C@@H](O)c2ccccn2)C1` [Example 250, cis-3-[(R)-hydroxy(pyridin-2-yl)methyl]-1-methyl-3-[4-(trifluoromethoxy)-phenyl]cyclobutanol] are 70%, 5100 to 20000 nM and 70%.
As to `OC(C1CCCc2cccnc21)C1(c2ccc(OC(F)(F)F)cc2)CCC1` (stereo not drawn) [Example 177, (anti)-5,6,7,8-tetrahydroquinolin-8-yl{1-[4-(trifluoromethoxy)phenyl]-cyclobutyl}methanol], the “HUMAN MICROSOMAL STABILITY (% REMAINING AFTER 30 MINUTES)” value in data set [1] was 0.12%. The IC50 on human TRPV3 lay in the range of 1100 to 5000 nM. In data set [2], the “RAT MICROSOMAL STABILITY (% REMAINING AFTER 30 MINUTES)” value is recorded as below 0.01%.
On to `O[C@H](c1ccccn1)C1(c2cc(C(F)(F)F)ccn2)CCC1` [Example 123, (S)-pyridin-2-yl{1-[4-(trifluoromethyl)pyridin-2-yl]cyclobutyl}methanol], for which the “HUMAN MICROSOMAL STABILITY (% REMAINING AFTER 30 MINUTES)” value in data set [1] is reported as 21%. Further, the IC50 on human TRPV3 was in the range of 50 to 500 nM. In data set [2], the “RAT MICROSOMAL STABILITY (% REMAINING AFTER 30 MINUTES)” value came to 11%.
The matching figures for `Cc1cccnc1[C@@H](O)C1(c2ccc(Cl)c(Cl)c2)CCC1` [Example 30, (S)-[1-(3,4-dichlorophenyl)cyclobutyl](3-methylpyridin-2-yl)methanol]: 1.5%, 1100 to 5000 nM and 0.98%.
For the compound `OC(c1ccccn1)C1(c2ccc(C(F)(F)F)cc2)CNC1` (stereo not drawn) [Example 152, pyridin-2-yl{3-[4-(trifluoromethyl)phenyl]azetidin-3-yl}methanol], in data set [1], the “HUMAN MICROSOMAL STABILITY (% REMAINING AFTER 30 MINUTES)” value is given as above 85%. Moreover, the IC50 on human TRPV3 lay within 5100 to 20000 nM. The “RAT MICROSOMAL STABILITY (% REMAINING AFTER 30 MINUTES)” value in data set [2] is above 85%.
As for `OC(c1ccccn1)C1(C2CCCCC2)CCC1` (stereo not drawn) [Example 162, (1-cyclohexylcyclobutyl)(pyridin-2-yl)methanol], in data set [1], the “HUMAN MICROSOMAL STABILITY (% REMAINING AFTER 30 MINUTES)” value stood at 0.02%. For the same compound, on human TRPV3, the half-inhibitory concentration (IC50) was in the range of 1100 to 5000 nM. Besides, the “RAT MICROSOMAL STABILITY (% REMAINING AFTER 30 MINUTES)” value in data set [2] is below 0.01%.
Turning to `OC(c1ccccn1)C1(C2CCC(C(F)(F)F)CC2)CCC1` (stereo not drawn) [Example 280, pyridin-2-yl{1-[4-(trifluoromethyl)cyclohexyl]cyclobutyl}methanol], the “HUMAN MICROSOMAL STABILITY (% REMAINING AFTER 30 MINUTES)” value in data set [1] was 9.0%. The IC50 on human TRPV3 was in the range of 1100 to 5000 nM. The “RAT MICROSOMAL STABILITY (% REMAINING AFTER 30 MINUTES)” value in data set [2] was below 0.01%.

As usually defined, the IC50 is the midpoint of a concentration-inhibition curve.
